Earlier results as cited in patent US20090018199A1, “Methods of Administering 3, 3, 14, 14 Tetramethyl Hexadecane 1, 16 Dioic Acid” (SYNDROME X LTD., priority 2003, published 2009).

Test system: patients
Details: follow-up 15 years total, patients randomized to niacin

SMILES: O=C(O)c1cccnc1 [Niacin, niacin]
- decrease in all-cause mortality: 11%
